Source: ChEMBL document CHEMBL3045136, “QSAR and flexible docking studies of some aldose reductase inhibitors obtained from natural origin” (Med Chem Res, 2012)

Biological target: Aldo-keto reductase family 1 member B1 (Rattus norvegicus, UniProt P07943)
Assay: Inhibition of Rattus norvegicus (rat) lens aldose reductase

Row | Compound | IC50
1 | CC(C(=O)O)N1C(=O)c2cc3c(c(O)c2C1=O)CC([C@@H](C)C(=O)O)O3 (some centres undefined) | 2 µM
2 | COc1cc2c(=O)oc3c(O)c(O)cc4c(=O)oc(c1O)c2c34 | 10 µM
3 | O=C(O)C1Cc2c(oc(=O)c3cc(O)c(O)c(O)c23)C1=O (centres undefined) | 2.4 µM
4 | CCOC(=O)C1Cc2c(oc(=O)c3cc(O)c(O)c(O)c23)C1=O (centres undefined) | 5.01 µM
5 | CCCC/C=C/CCCCCCCCCC1=C(OC)C(=O)C=C(OC)C1=O | 55 µM
6 | CC(=O)C[C@@]1(O)C(=O)C2=C(OC[C@@H]2C)c2ccc3c(C)cccc3c21 | 0.1 µM
7 | CC(=O)C[C@@]1(O)C(=O)C2=C(OC[C@@H]2C)c2ccc3c(c21)CCCC3(C)C | 1.74 µM
8 | O=C(/C=C/c1ccc(O)c2c1[C@H](C(=O)O[C@@H](Cc1ccc(O)c(O)c1)C(=O)O)[C@@H](c1ccc(O)c(O)c1)O2)O[C@H](Cc1ccc(O)c(O)c1)C(=O)O | 2.63 µM
9 | O=C(/C=C/c1ccc(O[C@@H](C(=O)O)[C@@H](O)c2ccc(O)c(O)c2)c(O)c1)O[C@H](Cc1ccc(O)c(O)c1)C(=O)O | 2.82 µM
10 | O=CC(O)C(O)(Oc1ccc(/C=C/C(=O)O[C@H](Cc2ccc(O)c(O)c2)C(=O)O)cc1O)C(O)C(O)CO (some centres undefined) | 3.16 µM
11 | C=C(C)[C@@H]1CC=C(COC2OC(CO)[C@H](O)[C@H](O)[C@H]2O)CC1 (some centres undefined) | 55 µM
12 | C=C(C)[C@@H]1CC=C(COC2OC(CO)[C@H](O)[C@@H](O)[C@@H]2O)CC1 (some centres undefined) | 14.5 µM
13 | CC(=O)O[C@H]1C[C@]2(CO)C3CC[C@@]4(C)C(C(=O)CC(=O)[C@@H]4C)[C@]3(C)CC[C@@]2(C)C2CC(C)(C)CC[C@@]21C (some centres undefined) | 47.9 µM
14 | CC1(C)C2CC[C@]3(C)C(CC=C4C5C[C@](C)(C(=O)O)C[C@@H](O)[C@]5(C)CC[C@]43C)[C@@]2(C)CC[C@@H]1O (some centres undefined) | 55 µM
15 | CC1(C)C2CC[C@]3(C)C(CC=C4C5C[C@](C)(C(=O)O)C[C@H](O)[C@]5(C)CC[C@]43C)[C@@]2(C)CC[C@@H]1O (some centres undefined) | 75.9 µM
16 | CC(C)c1ccc2c(c1)CCC1[C@@](C)(CO)CCC[C@]21C (some centres undefined) | 38.9 µM
17 | CC(C)c1ccc2c(c1)CCC1[C@@](C)(C(=O)O)CCC[C@]21C (some centres undefined) | 35.5 µM
18 | CC(=O)c1c(O)cc(O)cc1O[C@@H]1OC(COC(=O)c2cc(O)c(O)c(O)c2)[C@H](O)[C@H](O)[C@@H]1O (some centres undefined) | 28.8 µM
19 | O=C(/C=C/c1ccc(O)c(O)c1)OC1C[C@](O)(C(=O)O)C[C@H](O)[C@@H]1O (some centres undefined) | 1.82 µM
20 | CC1(C)C[C@H](O)[C@]23CC[C@@H](O)[C@](C)(CCC12)C3 (some centres undefined) | 95.5 µM
21 | CC1(C)CC2C1CC[C@@]1(C)C[C@]2(O)CC[C@@H]1O (some centres undefined) | 44.7 µM
22 | COc1cc2c(c(OC)c1OC)-c1c(cc(O)c(OC)c1OC)C[C@H](C)[C@H](C)[C@H]2O | 38 µM
23 | COc1cc(C(=O)/C(C)=C(/C)C(=O)c2ccc(O)c(OC)c2)ccc1O | 100 µM
24 | CCOc1ccc(C(=O)/C(C)=C(/C)C(=O)c2ccc(O)c(OC)c2)cc1OC | 34.7 µM
25 | COc1cc(/C=C(/C)[C@H](C)Cc2ccc(O)c(OC)c2)ccc1O | 35.5 µM

Row | Compound | IC50
26 | COc1cc([C@H]2O[C@H](c3ccc(O)c(OC)c3)[C@@H](C)[C@H]2C)ccc1O | 25.1 µM
27 | CC(CCC(=O)O)N1Cc2c(cc3c(c2O)CC([C@@H](C)C(=O)O)O3)C1=O (some centres undefined) | 12 µM
28 | C[C@@H](C(=O)O)C1Cc2c(cc3c(c2O)CN(CC(=O)O)C3=O)O1 (some centres undefined) | 1.26 µM
29 | CC(C(=O)O)N1Cc2c(cc3c(c2O)CC([C@@H](C)C(=O)O)O3)C1=O (some centres undefined) | 4.47 µM
30 | C[C@@H](C(=O)O)C1Cc2c(cc3c(c2O)C(=O)NC3=O)O1 (some centres undefined) | 5.37 µM
31 | C[C@@H](C(=O)O)C1Cc2c(cc3c(c2O)C(=O)N(CC(=O)O)C3=O)O1 (some centres undefined) | 0.447 µM
32 | CC(=O)C1=C(O)C2=CO[C@H](C)[C@@H](C)C2=C(C)C1=O | 8.71 µM
33 | CNC(=O)Oc1c(C)c(OC)cc2c1COC(C)C2 (centres undefined) | 34.7 µM
34 | Cc1cc(C(=O)O)c(O)c2c1[C@H](C)[C@@H](C)OC2 | 12 µM
35 | O=C1CC(O)C1=O (centres undefined) | 19.1 µM
36 | COC(=O)c1cc2cc3cc4cc(CC(=O)O)c(C(=O)/C=C(\O)c5ccccc5O)c(OC)c4c(OC)c3c(O)c2c(=O)o1 | 0.00129 µM
37 | C=C(C)C1CCC(CO[C@H]2OC(CO)C(O)[C@H](O)[C@@H]2O)CC1 (some centres undefined) | 46.8 µM
38 | C=C(C)C1CCC(COC2O[C@H](CO)[C@H](O)[C@@H](O)C2O)CC1 (some centres undefined) | 28.2 µM
39 | COc1cc2c(c(OC)c1C)COC(C)C2 (centres undefined) [6,8-DIMETHOXY-3,7-DIMETHYLISOCHROMAN] | 100 µM
40 | COc1cc2c(c(O)c1C)COC(C)C2 (centres undefined) [6-METHOXY-3,7-DIMETHYLISOCHROMAN-8-OL] | 33.1 µM
41 | O=Cc1ccc(CO)o1 [AES-103] | 182 µM
42 | C[C@H]1COC2=C1C(=O)C(=O)c1c2ccc2c1CCCC2(C)C [CRYPTOTANSHINONE] | 4.79 µM
43 | Cc1cccc2c3c(ccc12)C(=O)C(C(C)CO)=C(O)C3=O (centres undefined) [DANSHENXINKUN A] | 0.871 µM
44 | Cc1cccc2c3c(ccc12)C1=C(C(=O)C3=O)[C@@H](C)CO1 [DIHYDROTANSHINONE I] | 1.2 µM
45 | O=C1C(O)=CC(=O)c2c(O)cc(O)cc21 [FLAVIOLIN] | 43.7 µM
46 | COc1cc([C@H]2O[C@@H](c3ccc(O)c(OC)c3)[C@H](C)[C@@H]2C)ccc1O [NECTANDRIN B] | 38 µM
47 | O=C(/C=C/c1ccc(O)c(O)c1)O[C@H](Cc1ccc(O)c(O)c1)C(=O)O [ROSMARINIC ACID] | 3.89 µM
48 | Cc1coc2c1C(=O)C(=O)c1c-2ccc2c(C)cccc12 [TANSHINONE I] | 10 µM
49 | COc1cc([C@H]2O[C@@H](c3ccc(O)c(OC)c3)[C@@H](C)[C@H]2C)ccc1O [TETRAHYDROFUROGUAIACIN B] | 21.4 µM
